Assay results as given in patent publication US12473303B2, “4-[[(7-aminopyrazolo[1,5-a]pyrimidin-5-yl)amino methyl]piperidin-3-ol compounds and their therapeutic use” (CARRICK THERAPEUTICS LIMITED, priority 2019, dated 2025).
“Also recorded” adds a separate entry of the source. Like-named read-outs stand apart in the source and are kept apart here.

Columns and labels:
[1] = test system: Cyclin K; design: key to Cyclin K Degrader Activity: −: No Cyclin K degradation.; +: Weak Cyclin K degradation.; ++: Moderate Cyclin K degradation.; +++: Strong Cyclin K degradation; details: cited from earlier work; for Cyclin K degradation (in words): literature
[2] = test system: Cyclin K; assay: Western blotting analysis of Cyclin K depletion in cell culture; assay type: cell-based; details: A673 cells; for Cyclin K Degrader Activity: Table 2, 1 μM compound, 2 hours
Procedure: Western Blotting Analysis of Cyclin K Depletion in Cell Culture A673 cells were incubated for 2 hours with of 1 μM compound in presence or in absence of 10 μM proteasome inhibitor MG132 (Sigma Aldrich) or NAE (NEDD8 activating enzyme) inhibitor […] (Cell Signalling Technologies). Cells were washed 2× with cold Phosphate Buffered Saline (PBS, Sigma Aldrich), followed by the addition of lysis buffer for 15 minutes on ice before harvesting and centrifugation.
Protein content in the cell lysate was assessed by BCA assay (Thermo Fisher). Samples were then prepared with 4× Laemmlli Buffer (Bio-Rad) and heated to 95° C. for 5 minutes. Each sample was loaded onto a Mini-PROTEAN TGX Stain Free Gel (Bio-Rad) at 50 μg protein/well. SDS-PAGE was performed and then protein was transferred onto a PVDF membrane using a Trans-Blot® Turbo™ Midi PVDF Transfer Pack (Bio-Rad. Membranes were blocked in TBS-T (Invitrogen), 5% (w/v) milk powder (Marvel) overnight at 4° C.
Membranes were incubated with anti-CCNK antibody (rabbit) primary antibody (Abcam) and anti-GAPDH antibody (rabbit) in TBS-T for 2 hours. Membranes were then washed three times with TBS-T, before incubation secondary goat anti-rabbit HRP antibody (Cell Signalling Technologies) followed by 3× washing in TBS-T. Blots were imaged using a Chemidoc imager (Bio-Rad). Cyclin K depletion was measured as the observable drop in band intensity in compound treated samples relative to proteasome-inhibitor treated samples, measured by densitometry (Image Lab).

[3] = target: Human CDK7/CycH/MAT1 (Homo sapiens (Human), UniProt P50613); assay: Radiometric protein kinase assay (33PanQinase Activity Assay), CDK7; assay type: biochemical; details: Table 1; ATP 3 μM
Chain of Human CDK7/CycH/MAT1 (P50613 whole entry): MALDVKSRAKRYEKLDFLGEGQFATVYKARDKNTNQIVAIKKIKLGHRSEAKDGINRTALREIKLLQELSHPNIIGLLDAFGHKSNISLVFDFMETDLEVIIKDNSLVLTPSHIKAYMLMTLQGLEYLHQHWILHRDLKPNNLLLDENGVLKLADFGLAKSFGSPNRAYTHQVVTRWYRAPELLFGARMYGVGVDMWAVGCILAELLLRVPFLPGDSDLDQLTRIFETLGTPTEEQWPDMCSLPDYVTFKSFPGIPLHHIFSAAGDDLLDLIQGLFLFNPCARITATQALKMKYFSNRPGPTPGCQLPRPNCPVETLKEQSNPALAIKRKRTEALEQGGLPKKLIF
Chain of Human CDK7/CycH/MAT1 (P51946 whole entry partner): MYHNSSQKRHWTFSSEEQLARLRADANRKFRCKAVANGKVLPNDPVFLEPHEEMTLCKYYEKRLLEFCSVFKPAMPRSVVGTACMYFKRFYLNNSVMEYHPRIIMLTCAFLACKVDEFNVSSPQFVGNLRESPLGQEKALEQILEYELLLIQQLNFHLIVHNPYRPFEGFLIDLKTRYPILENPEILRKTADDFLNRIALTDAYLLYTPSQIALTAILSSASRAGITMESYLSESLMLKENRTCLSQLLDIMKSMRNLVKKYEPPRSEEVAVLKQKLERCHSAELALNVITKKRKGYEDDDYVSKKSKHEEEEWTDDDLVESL
Chain of Human CDK7/CycH/MAT1 (P51948 whole entry partner): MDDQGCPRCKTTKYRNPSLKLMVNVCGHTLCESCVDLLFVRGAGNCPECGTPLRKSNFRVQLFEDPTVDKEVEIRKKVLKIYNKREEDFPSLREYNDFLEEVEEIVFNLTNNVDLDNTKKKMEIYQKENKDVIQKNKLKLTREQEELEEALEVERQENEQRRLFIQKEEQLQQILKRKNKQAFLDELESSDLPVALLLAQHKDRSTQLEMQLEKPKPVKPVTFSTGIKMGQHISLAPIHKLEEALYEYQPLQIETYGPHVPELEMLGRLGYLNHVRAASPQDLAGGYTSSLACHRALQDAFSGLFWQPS
Procedure: (§1) A radiometric protein kinase assay (^33PanQinase® Activity Assay) was used for measuring the kinase activity of the two protein kinases (CDK12/CDK7). All kinase assays were performed in 96-well FlashPlates™ from PerkinElmer (Boston, MA, USA) in a 50 μL reaction volume.
(§2) The reaction cocktail was pipetted in four steps in the following order: • 20 μL of assay buffer (standard buffer) • 5 μL of ATP solution (in H2O) • 5 μL of test compound (in 10% DMSO) • 10 μL of substrate/10 μL of enzyme solution (premixed)
(§3) The reaction mixture was incubated at 30° C. for 60 min and then stopped by the addition of 2% (v/v) H3PO4. Plates were aspirated and washed two times with 200 μL 0.9% (w/v) NaCl. Incorporation of ^33Pi was determined with a microplate scintillation count (Microbeta, Wallac).
(§4) The fitting method used was a least-squares fit.

[4] = test system: A673 cells; assay: Cellular potency in A673 cells; assay type: cell-based; details: for IC50: Homo sapiens, A673 cells
[5] = target: Human CDK12 wt/CycK (Homo sapiens (Human), UniProt Q9NYV4); assay: Radiometric protein kinase assay (33PanQinase Activity Assay), CDK12; assay type: biochemical; details: for CDK7/CDK12: ratio greater than 1 indicated selectivity for CDK12
Chain of Human CDK12 wt/CycK (Q9NYV4 whole entry): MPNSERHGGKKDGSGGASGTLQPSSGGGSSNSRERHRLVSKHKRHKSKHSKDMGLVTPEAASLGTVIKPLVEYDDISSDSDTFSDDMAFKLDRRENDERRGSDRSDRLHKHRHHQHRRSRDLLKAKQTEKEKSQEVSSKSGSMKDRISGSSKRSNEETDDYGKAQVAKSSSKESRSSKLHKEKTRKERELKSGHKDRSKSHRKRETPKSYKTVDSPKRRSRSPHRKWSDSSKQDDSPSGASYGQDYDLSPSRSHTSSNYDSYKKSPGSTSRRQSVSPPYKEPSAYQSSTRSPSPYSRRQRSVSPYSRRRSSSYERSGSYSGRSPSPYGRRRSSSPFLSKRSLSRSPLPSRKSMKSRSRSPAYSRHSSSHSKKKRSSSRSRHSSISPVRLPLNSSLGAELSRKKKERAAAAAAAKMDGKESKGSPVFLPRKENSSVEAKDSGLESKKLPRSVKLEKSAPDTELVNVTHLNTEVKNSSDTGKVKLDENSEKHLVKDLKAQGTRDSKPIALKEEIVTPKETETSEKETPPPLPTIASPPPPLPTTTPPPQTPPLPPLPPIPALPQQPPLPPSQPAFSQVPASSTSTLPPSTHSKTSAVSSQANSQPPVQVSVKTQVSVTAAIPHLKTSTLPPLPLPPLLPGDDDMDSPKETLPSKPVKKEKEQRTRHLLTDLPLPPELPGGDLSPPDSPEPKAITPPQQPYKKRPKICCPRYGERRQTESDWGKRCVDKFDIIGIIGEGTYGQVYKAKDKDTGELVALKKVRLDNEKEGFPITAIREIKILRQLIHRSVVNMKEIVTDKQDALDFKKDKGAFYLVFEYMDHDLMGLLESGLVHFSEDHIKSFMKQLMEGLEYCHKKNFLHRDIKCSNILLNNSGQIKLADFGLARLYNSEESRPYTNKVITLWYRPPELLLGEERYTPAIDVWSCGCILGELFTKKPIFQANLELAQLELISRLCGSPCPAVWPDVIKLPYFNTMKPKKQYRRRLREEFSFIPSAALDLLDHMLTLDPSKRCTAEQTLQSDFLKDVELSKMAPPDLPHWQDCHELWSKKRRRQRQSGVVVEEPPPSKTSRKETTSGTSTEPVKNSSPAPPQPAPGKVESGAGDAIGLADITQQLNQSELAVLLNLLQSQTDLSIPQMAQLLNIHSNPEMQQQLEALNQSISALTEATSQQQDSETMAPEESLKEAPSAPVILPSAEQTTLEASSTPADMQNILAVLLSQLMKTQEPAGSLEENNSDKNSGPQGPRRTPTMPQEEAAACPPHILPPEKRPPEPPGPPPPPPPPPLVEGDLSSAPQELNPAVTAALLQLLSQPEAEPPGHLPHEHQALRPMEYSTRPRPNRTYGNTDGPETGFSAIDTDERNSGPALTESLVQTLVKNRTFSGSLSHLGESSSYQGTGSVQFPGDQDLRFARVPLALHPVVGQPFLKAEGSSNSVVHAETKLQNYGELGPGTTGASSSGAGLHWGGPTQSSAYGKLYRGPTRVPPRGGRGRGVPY
Chain of Human CDK12 wt/CycK (O75909 whole entry partner): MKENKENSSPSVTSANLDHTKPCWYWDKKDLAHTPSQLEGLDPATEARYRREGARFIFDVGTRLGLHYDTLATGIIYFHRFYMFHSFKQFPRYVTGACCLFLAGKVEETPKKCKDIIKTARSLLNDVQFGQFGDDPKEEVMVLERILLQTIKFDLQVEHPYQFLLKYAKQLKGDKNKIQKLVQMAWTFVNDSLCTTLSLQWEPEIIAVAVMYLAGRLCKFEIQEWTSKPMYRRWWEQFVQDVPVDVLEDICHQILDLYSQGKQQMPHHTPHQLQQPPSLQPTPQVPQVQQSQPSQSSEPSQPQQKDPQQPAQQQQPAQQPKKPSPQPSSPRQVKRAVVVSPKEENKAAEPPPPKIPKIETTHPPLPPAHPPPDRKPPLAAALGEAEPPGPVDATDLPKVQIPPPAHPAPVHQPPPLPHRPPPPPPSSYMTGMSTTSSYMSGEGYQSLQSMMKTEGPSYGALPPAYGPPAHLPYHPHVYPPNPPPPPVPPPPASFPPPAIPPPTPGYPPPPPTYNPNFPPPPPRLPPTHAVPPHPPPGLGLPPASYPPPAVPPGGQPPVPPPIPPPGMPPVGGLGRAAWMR
Procedure: as §1, §2, §3, §4

[6] = test system: HeLa and A549 cells; details: Table 2, cited from earlier work
[7] = Table 3, ratio >0.9 is an indicator of Cyclin K degradation
[8] = Table 1, ATP 0.3 μM, read-out: CDK12 IC50
[9] = Table 2, CDK12 kinase activity, read-out: Biochemical Potency IC50
[10] = Table 3, CDK12 kinase activity, read-out: Biochemical Potency IC50

Structure (SMILES) | Cyclin K degradation (in words) [1] | Cyclin K degradation (in words) [2] | Cyclin K Degrader Activity [2] | IC50 [3] [nM] | IC50 ([4]; A673, Table 2) [nM] | IC50 ([4]; A673, Table 3) [nM] | Ratio of Biochemical Potency: Cellular Potency ([4]; Table 2) | Ratio of Biochemical Potency: Cellular Potency [4, 7] | IC50 [5, 8] [nM] | CDK7/CDK12 ([5]; Table 1) | IC50 [5, 9] [nM] | IC50 [5, 10] [nM] | IC50 ([6]; derived from published data in HeLa and A549 cells, read-out: Cellular Potency IC50) [nM] | Ratio of Biochemical Potency: Cellular Potency ([6]; derived from published data) | Cyclin K Degrader Activity ([1]; Table 2, derived from published data in HeLa and A549 cells)
CC[C@H](CO)Nc1nc(NCc2ccc(-c3ccccn3)cc2)c2ncn(C(C)C)c2n1 [CR8] | cause Cyclin K degradation |  |  |  |  |  |  |  |  |  |  |  |  |  | 
CCc1cnn2c(NCc3ccc[n+]([O-])c3)cc(N3CCCC[C@H]3CCO)nc12 [Dinaciclib, reference compound] |  | not cyclin K degraders | − |  |  |  |  |  |  |  |  |  |  |  | 
Cc1cccn2cc(CNc3cc(NC[C@H]4CCNC[C@@H]4O)nc4c(C(C)C)cnn34)nc12 [H-APPAMP-004, (3R,4R)-4-(((3-isopropyl-7-(((8-methylimidazo[1,2-a]pyridin-2-yl)methyl)amino)pyrazolo[1,5-a]pyrimidin-5-yl)amino)methyl)piperidin-3-ol] |  |  | ++ | 305 | 8.9 | 12 | 6.2 | 4.2 | 51.7 | 5.90 | 55 | 51 |  |  | 
Cc1cccc2nc(CNc3cc(NC[C@H]4CCNC[C@@H]4O)nc4c(C5CC5)cnn34)cn12 [H-APPAMP-025, (3R,4R)-4-(((3-cyclopropyl-7-(((5-methylimidazo[1,2-a]pyridin-2-yl)methyl)amino)pyrazolo[1,5-a]pyrimidin-5-yl)amino)methyl)piperidin-3-ol] |  |  | +++ | 334 | 1.5 | 1.5 | 23 | 23 | 36 | 9.3 | 36 | 36 |  |  | 
Cc1cn2cc(CNc3cc(NC[C@H]4CCNC[C@@H]4O)nc4c(C5CC5)cnn34)nc2cc1C(F)(F)F [H-APPAMP-040, (3R,4R)-4-(((3-cyclopropyl-7-(((6-methyl-7-(trifluoromethyl)imidazo[1,2-a]pyridin-2-yl)methyl)amino)pyrazolo[1,5-a]pyrimidin-5-yl)amino)methyl)piperidin-3-ol] |  |  |  | 1530 |  | 5.4 |  | 8.9 | 48 | 31.9 |  | 48 |  |  | 
CC(C)Oc1cccc2nc(CNc3cc(NC[C@H]4CCNC[C@@H]4O)nc4c(C5CC5)cnn34)cn12 [H-APPAMP-041, (3R,4R)-4-(((3-cyclopropyl-7-(((5-isopropoxyimidazo[1,2-a]pyridin-2-yl)methyl)amino)pyrazolo[1,5-a]pyrimidin-5-yl)amino)methyl)piperidin-3-ol] |  |  |  | 650 |  | 9.8 |  | 4.7 | 46 | 14.1 |  | 46 |  |  | 
O[C@H]1CNCC[C@@H]1CNc1cc(NCc2cn3cc(C4CC4)cc(C(F)(F)F)c3n2)n2ncc(C3CC3)c2n1 [H-APPAMP-042, (3R,4R)-4-(((3-cyclopropyl-7-(((6-cyclopropyl-8-(trifluoromethyl)imidazo[1,2-a]pyridin-2-yl)methyl)amino)pyrazolo[1,5-a]pyrimidin-5-yl)amino)methyl)piperidin-3-ol] |  |  |  | 974 |  | 30 |  | 3.3 | 100 | 9.7 |  | 100 |  |  | 
Cc1cc(C)n2cc(CNc3cc(NC[C@H]4CCNC[C@@H]4O)nc4c(C(C)C)cnn34)nc2n1 [H-APPAMP-043, (3R,4R)-4-(((7-(((5,7-dimethylimidazo[1,2-a]pyrimidin-2-yl)methyl)amino)-3-isopropylpyrazolo[1.5-a]pyrimidin-5-yl)amino)methyl)piperidin-3-ol] |  |  | − | 484 | 340 | 340 | 0.06 | 0.06 | 21 | 23 | 21 | 21 |  |  | 
CC(C)c1cnn2c(NCc3nc4cc(C5CC5)ccn4n3)cc(NC[C@H]3CCNC[C@@H]3O)nc12 [H-APPAMP-044, (3R,4R)-4-(((7-(((7-cyclopropyl-[1,2,4]triazolo[1,5-a]pyridin-2-yl)methyl)amino)-3-isopropylpyrazolo[1,5-a]pyrimidin-5-yl)amino)methyl)piperidin-3-ol] |  |  | + | 269 | 44 | 44 | 0.91 | 0.91 | 40 | 6.7 | 40 | 40 |  |  | 
O[C@H]1CNCC[C@@H]1CNc1cc(NCc2cn3ccc(-c4ccccc4)cc3n2)n2ncc(C3CC3)c2n1 [H-APPAMP-045, (3R,4R)-4-(((3-cyclopropyl-7-(((7-phenylimidazo[1,2-a]pyridin-2-yl)methyl)amino)pyrazolo[1,5-a]pyrimidin-5-yl)amino)methyl)piperidin-3-ol] |  |  | − | 496 | 110 | 110 | 0.16 | 0.16 | 18 | 27.6 | 18 | 18 |  |  | 
CN(C)C/C=C/C(=O)Nc1ccc(C(=O)N2CCC[C@@H](Nc3ncc(Cl)c(-c4c[nH]c5ccccc45)n3)C2)cc1 [THZ-531] | not cyclin K degraders; also recorded: did not cause cyclin K degradation |  |  |  |  |  |  |  |  |  |  |  | 210 | 0.74 | −
